In patent US20250313574A1, “SIALIC ACID DERIVATIVES AND METHODS OF USING SAME” (EISAI R&D MANAGEMENT CO., LTD., priority 2022, published 2025):

Key:
[1] = biological target: Recombinant human CD33 protein (Homo sapiens (Human), UniProt P20138); assay: CD33 competitive binding assay for HTS drug screen (fluorescent multivalent sialic acid probe)
Summary of the method: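 Inhibition was read as reduced retention of a fluorescent multivalent sialic acid complex (final 5 μM neutravidin, 15 μM A-375, 5 μM biotin-4-FITC) on plate-immobilized human CD33. Compound was added first, the probe followed for 30 min at room temperature in PBS with 0.2% Tween-20 and 0.5% BSA, and FITC was measured after a wash.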

[2] = biological target: Recombinant Human Siglec-3/CD33 protein (His-CD33) (Homo sapiens (Human), UniProt P20138); assay: Differential scanning fluorimetry (DSF) thermal shift assay; assay type: binding
Sequence of Recombinant Human Siglec-3/CD33 protein (His-CD33) (P20138 18-259): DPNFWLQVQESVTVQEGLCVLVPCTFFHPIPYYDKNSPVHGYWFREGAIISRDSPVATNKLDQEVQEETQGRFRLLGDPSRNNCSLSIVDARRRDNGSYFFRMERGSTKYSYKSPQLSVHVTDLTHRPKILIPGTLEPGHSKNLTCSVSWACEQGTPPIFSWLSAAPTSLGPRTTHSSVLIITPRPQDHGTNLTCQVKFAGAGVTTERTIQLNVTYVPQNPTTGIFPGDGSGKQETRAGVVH
Method: In the DSF assay, as the temperature increases, the protein gets gradually unfolded, exposing hydrophobic regions in which a fluorescent dye binds causing the fluorescence signal to increase. The midpoint of the unfolding transitions is called the thermal melt (Tm) or denaturation temperature and the Tm was defined as the peak apex in the derivative curve. Here, the Tm temperature of CD33 in the presence and absence of A-001 at a concentration of 50 μM was examined.
Recombinant Human Siglec-3/CD33 protein was purchased from Acros (catalog no. CD3-H5226) and reagents used in this study are shown in the Table 1 below.
Lyophilized CD33 protein was received in 1 mg aliquots from Acros. The protein was diluted with 2.5 mL of sterile water to a concentration of 400 μg/mL (14.5 μM), aliquoted into 138 μL aliquots and stored as at −20° C. On the day of analysis, the protein was thawed and […] solution was diluted to […] using buffer containing 133 mM NaCl, 133 mM phosphate buffered solution and 13.9× Sypro Orange dye in water in a quantity to cover the amount of samples tested on the day of the analysis.
200 μM stock solutions of A-001 containing 0.2% DMSO in water was supplied by compound management in a 384-well plate format.
Sample matrix were prepared by adding 7.5 μL of the protein buffer stock solution followed by addition of 2.5 μL of the 200 μM compound solutions in 384-well PCR plates to give a final volume of 10 μL per well consisting of 0.5 μM CD33 protein, 100 mM phosphate buffered solution pH 7.4, 100 mM NaCl, 10× SYPRO orange dye and 50 μM compound concentration (final DMSO concentration ˜0.2%). Using the Applied Biosystems® Protein Thermal Shift software (algorithm version 1.3.), the denaturation temperature or thermal melt (Tm) of the unbound and ligand bound CD33 protein was automatically assigned and the difference in thermal melt (ΔTm D) was calculated using the derivative curve by the Protein Thermal Shift software.
Recombinant human CD33 protein (0.5 μM) was incubated under buffered conditions in the presence of SYPRO orange dye, a temperature gradient was applied and a thermogram was produced by monitoring the fluorescence. The Tm was defined as the peak apex in the derivative curve in the study. […] Addition of […] of A-001 (Blue lines) to the CD33 protein induced significant Tm increases (ΔTm D) of 12.2±0.7° C.

[3] = difference in thermal melt of CD33 protein (0.5 μM) with 50 μM compound
[4] = thermal melt shift of 0.5 μM CD33 protein with 50 μM compound

Sequence of Recombinant human CD33 protein (P20138 18-259): as above

| Structure (SMILES) | EC50 [1] [nM] | DSF (dTmD) [2, 3] [°C] | DSF (dTmD) [2, 4] |
| --- | --- | --- | --- |
| Cc1cc(C(=O)NC[C@@H](O)[C@@H](O)[C@@H]2O[C@@](C/C=C/c3ccc4c(c3)C(NC(=O)C3CCCOC3)CC4)(C(=O)O)C[C@H](O)[C@H]2NC(=O)Cn2cc(C3CCCCC3)nn2)cc(C)c1O (some centres unmarked) [A-284] | 1660 | 6.8 | – |
| CC(=O)N[C@H]1[C@H]([C@H](O)[C@H](O)CNC(=O)c2cc(C)c(O)c(C)c2)O[C@@](CCN2CCOC[C@@]23CCN(C(=O)NC2(c4ccc(F)cc4)CCCC2)C3)(C(=O)O)C[C@@H]1O [A-057] | 265 | – | 9.7 |
| Cc1cc(C(=O)NC[C@@H](O)[C@@H](O)[C@@H]2O[C@@](OC3CCCCC3NC(=O)CNC(=O)CC3CCOCC3)(C(=O)O)C[C@H](O)[C@H]2NC(=O)Cn2cc(C3CCCCC3)nn2)cc(C)c1O (some centres unmarked) [A-328] | 12300 | 1.4 | – |
| CC(=O)N[C@H]1[C@H]([C@H](O)[C@H](O)CNC(=O)c2cc(C)c(O)c(C)c2)O[C@@](CCN2CCOC[C@@]23CCN(C(=O)N(C)Cc2ccccc2)C3)(C(=O)O)C[C@@H]1O [A-063] | 323 | – | 6.3 |
| CC(=O)N[C@H]1[C@H]([C@H](O)[C@H](O)CNC(=O)c2cc(C)c(O)c(C)c2)O[C@@](C/C=C/c2cccc(CN(C)C(=O)C3CCCOC3)c2)(C(=O)O)C[C@@H]1O (some centres unmarked) [A-292] | 3020 | 4.0 | – |
| CC(=O)N[C@H]1[C@H]2O[C@](C(=O)O)(C/C=C/COC[C@H](NC(=O)C3CCCOC3)COCCOc3c(C)cc(cc3C)C(=O)NC[C@@H](O)[C@H]2O)C[C@@H]1O (some centres unmarked) [A-339] | 5910 | 4.4 | – |
| CC(=O)N[C@H]1[C@H]([C@H](O)[C@H](O)CNC(=O)c2cc(C)c(O)c(C)c2)O[C@@](C/C=C/c2cccc(CNC(=O)C3CCC(Nc4ncccn4)CC3)c2)(C(=O)O)C[C@@H]1O (some centres unmarked) [A-253] | 195 | 9.6 | – |
| Cc1cc(C(=O)NC[C@@H](O)[C@@H](O)[C@@H]2O[C@@](OC3CCCCC3NC(=O)CN(C)C(=O)OCc3cccc(C(=O)NC4CC4)c3)(C(=O)O)C[C@H](O)[C@H]2NC(=O)Cn2cc(C3CCCCC3)nn2)cc(C)c1O (some centres unmarked) [A-326] | 13600 | 4.0 | – |
| CC(=O)N[C@H]1[C@H]([C@H](O)[C@H](O)CNC(=O)c2cc(C)c(O)c(C)c2)O[C@@](CCN2CCOC[C@@]23CCN(C(=O)N(C)c2ccccc2)C3)(C(=O)O)C[C@@H]1O [A-059] | 60 | – | 9.3 |
| CC(=O)N[C@H]1[C@H]([C@H](O)[C@H](O)CNC(=O)c2cc(C)c(O)c(C)c2)O[C@@](C/C=C/c2cccc(CNC(=O)c3ccc4[nH]nnc4c3)c2)(C(=O)O)C[C@@H]1O [A-237] | 5030 | 0.8 | – |
| CC(=O)N[C@H]1[C@H]([C@H](O)[C@H](O)CNC(=O)c2cc(C)c(O)c(C)c2)O[C@@](CC2OC(C)(C)O[C@H]2c2cccc(N3CCCC3=O)c2)(C(=O)O)C[C@@H]1O (some centres unmarked) [A-309] | 540 | 5.2 | – |
| CC(=O)N[C@H]1[C@H]2O[C@](C(=O)O)(C/C=C/CCC[C@@H](NC(=O)[C@@H]3CCCOC3)c3cccc(c3)COc3c(C)cc(cc3C)C(=O)NC[C@@H](O)[C@H]2O)C[C@@H]1O [A-354] | 27500 | 1.5 | – |
| CC(=O)N[C@H]1[C@H]([C@H](O)[C@H](O)CNC(=O)c2cc(C)c(O)c(C)c2)O[C@@](CCN2CCOC[C@@]23CCN(c2cc(C4CC4)ccn2)C3)(C(=O)O)C[C@@H]1O [A-036] | 16 | – | 12.5 |
| Cc1cc2cc(C)c1OCc1cccc(c1)[C@H](NC(=O)C1CCCOC1)CCC/C=C/C[C@]1(C(=O)O)C[C@H](O)[C@@H](NC(=O)Cn3cc(C4CCCCC4)nn3)[C@@H](O1)[C@H](O)[C@H](O)CNC2=O (some centres unmarked) [A-356] | 1510 | 4.8 | – |
| CC(=O)N[C@H]1[C@H]2O[C@](C(=O)O)(C/C=C/c3cccc(c3)[C@@H](NC(=O)C3CCCOC3)CCCc3cc(cc(Cl)c3O)C(=O)NC[C@@H](O)[C@H]2O)C[C@@H]1O (some centres unmarked) [A-352] | 94000 | 0.7 | – |

More lines, now with the values ahead:

| EC50 [1] [nM] | DSF (dTmD) [2, 3] [°C] | DSF (dTmD) [2, 4] | Structure (SMILES) |
| --- | --- | --- | --- |
| 127 | – | 10.6 | CC(=O)N[C@H]1[C@H]([C@H](O)[C@H](O)CNC(=O)c2ccc(O)c(C(F)(F)F)c2)O[C@@](CCN2CCOC[C@@]23CCN(C(=O)OC(C)(C)C)C3)(C(=O)O)C[C@@H]1O [A-147] |
| 15 | – | 13.5 | CC(=O)N[C@H]1[C@H]([C@H](O)[C@H](O)CNC(=O)c2cc(C)c(O)c(C)c2)O[C@@](CCN2CCN(C)C[C@@]23CCN(C(=O)OC(C)(C)C)C3)(C(=O)O)C[C@@H]1O [A-010] |
| 820 | – | 7.6 | CC(=O)N[C@H]1[C@H]([C@H](O)[C@H](O)CNC(=O)c2cc(Br)ccc2F)O[C@@](CCN2CCOC[C@@]23CCN(C(=O)OC(C)(C)C)C3)(C(=O)O)C[C@@H]1O [A-172] |
| 4210 | – | 4.8 | CCC/C(C)=C/C(=O)NC[C@@H](O)[C@@H](O)[C@@H]1O[C@@](CCN2CCOC[C@@]23CCN(C(=O)OC(C)(C)C)C3)(C(=O)O)C[C@H](O)[C@H]1NC(C)=O [A-162] |
| 12 | – | 13.3 | CC(=O)N[C@H]1[C@H]([C@H](O)[C@H](O)CNC(=O)c2cc(C)c(O)c(C)c2)O[C@@](CCN2CCOC[C@@]23CCN(C(=O)NC(C)(C)C)C3)(C(=O)O)C[C@@H]1O [A-042] |
| 41 | – | 11.0 | CC(=O)N[C@H]1[C@H]([C@H](O)[C@H](O)CNC(=O)c2cc(C)c(O)c(C)c2)O[C@@](CCN2CCOC[C@@]23CCN(C(=O)C2(C)CCCCC2)C3)(C(=O)O)C[C@@H]1O [A-071] |
| 700 | – | 5.7 | C/C=C/C=C/C(=O)NC[C@@H](O)[C@@H](O)[C@@H]1O[C@@](CCN2CCOC[C@@]23CCN(C(=O)OC(C)(C)C)C3)(C(=O)O)C[C@H](O)[C@H]1NC(C)=O [A-163] |
| 1970 | – | 8.3 | CC(=O)N[C@H]1[C@H]([C@H](O)[C@H](O)CNC(=O)c2cc(C(F)(F)F)cc(C(F)(F)F)c2)O[C@@](CCN2CCOC[C@@]23CCN(C(=O)OC(C)(C)C)C3)(C(=O)O)C[C@@H]1O [A-168] |
| 22 | – | 12.5 | CC(=O)N[C@H]1[C@H]([C@H](O)[C@H](O)CNC(=O)c2ccc3[nH]cc(C)c3c2)O[C@@](CCN2CCOC[C@@]23CCN(C(=O)OC(C)(C)C)C3)(C(=O)O)C[C@@H]1O [A-112] |
| 49000 | −0.3 | – | COC(=O)[C@@]1(CCN2CCOC[C@@]23CCN(C(=O)OC(C)(C)C)C3)C[C@H](O)[C@@H](NC(C)=O)[C@H]([C@H](O)[C@H](O)CNC(=O)c2cc(C)c(O)c(C)c2)O1 [A-361] |
| 28 | – | 12.4 | CC(=O)N[C@H]1[C@H]([C@H](O)[C@H](O)CNC(=O)c2ccc(O)c(C)c2)O[C@@](CCN2CCOC[C@@]23CCN(C(=O)OC(C)(C)C)C3)(C(=O)O)C[C@@H]1O [A-117] |
| 133 | – | 10.7 | CC(=O)N[C@H]1[C@H]([C@H](O)[C@H](O)CNC(=O)c2ccc(C)c(F)c2)O[C@@](CCN2CCOC[C@@]23CCN(C(=O)OC(C)(C)C)C3)(C(=O)O)C[C@@H]1O [A-149] |
| 582 | 5.0 | – | CC(=O)N[C@H]1[C@H]([C@H](O)[C@](C)(O)CNC(=O)c2cc(C)c(O)c(C)c2)O[C@@](CCN2CCOC[C@@]23CCN(C(=O)OC(C)(C)C)C3)(C(=O)O)C[C@@H]1O [A-204] |
